Laboratory results reported in patent US9061038B2, “Doxorubicin adjuvants to reduce toxicity and methods for using the same” (Tosk, Incorporated, priority 2008, dated 2015).
“Also recorded” adds a separate entry of the source. Where a name gives a salt, the structure may show the parent alone.

Columns and labels:
[1] = cited from earlier work
CD-1 mice [2] = experiment: Mouse study: protection against doxorubicin-induced cardiac damage, plasma cardiac troponin I (cTnI) ELISA; format: in vivo; details: 25 mg/kg doxorubicin ip, 1.0 or 3.0 mg/kg TK-115339 ip 3 hours before and after doxorubicin, single ip on days 2-4, plasma on day 5 (96 hours)
Text: To this end, a representative nitrone test article (TK-115339) was examined for its ability to mitigate one aspect of doxorubicin-induced toxicity, cardiac damage, in CD-1 mice as determined by concentration of cardiac troponin I (cTnI) in animal plasma (Li et al., Circulation, 113:535-43 (2006) and Hou et al., J Lab Clin Med., 146: 299-303 (2005). Doxorubicin was purchased from Xinchem Corporation (China). TK-115339 was synthesized at the University of California, Santa Cruz. […]
On days 2, 3 and 4, the mice received a single ip injection of either 1 or 3 mg/kg of TK-115339. […] The plasma samples were analyzed for cTnI using a commercial ELISA test according to the manufacture's recommendations (Life Diagnostics, Inc., Cat. No. 2010-1-HSP).
(§1) Data was analyzed using SPSS software (SPSS Inc., Chicago, Ill.). […]
Representative of the data shown in FIG. 1, mice (10 animals/treatment group) were dosed ip on Day 1 with vehicle (pH 7.4 buffered saline), 25 mg/kg doxorubicin ip or 25 mg/kg doxorubicin ip plus 1.0 or 3.0 mg/kg TK-115339 3 hours before, and after, the doxorubicin treatment. […] The plasma samples were analyzed for cTnI using a commercial ELISA test for troponin I. Boxplots of troponin findings from the study are provided in FIG. 1.

CD-1 mice [3] = experiment: Mouse dose response study: protection against doxorubicin-associated cardiotoxicity, plasma cTnI ELISA; format: in vivo; details: 25 mg/kg doxorubicin ip, 0.0001, 0.001, 0.01, 0.1 or 1.0 mg/kg TK-115339 ip 3 hours before and after doxorubicin, plasma on day 5
Procedure: The aim of this study was to establish the dose response for the protection afforded by TK-115339 against doxorubicin-associated cardiotoxicity.
Eight to ten-week-old male CD-1 male mice (Charles River, Hollister, Calif.) weighing 30-35 g were housed in a climate-controlled environment, the light was controlled (light:dark, 12:12), and the animals were given food and water ad libitum. The animals (12 animals/treatment group) were dosed ip (200 μl volume) on day 1 with 25 mg/kg doxorubicin or 25 mg/kg doxorubicin plus 0.0001, 0.001, 0.01, 0.1 or 1.0 mg/kg TK-115339 3 hours before, and after, the doxorubicin treatment. […]
On days 2 and 3 the mice received a single ip injection of either saline (doxorubicin alone group) or […] (dose ranging experimental groups). […] The plasma samples were analyzed for cTnI using a commercial ELISA test according to the manufacture's recommendations (Life Diagnostics, Inc., Cat. No. 2010-1-HSP).
as §1
Representative of the data shown in FIG. 2, mice (12 animals/treatment group) were dosed ip on Day 1 with 25 mg/kg doxorubicin or 25 mg/kg doxorubicin plus 0.0001, 0.001, 0.01, 0.1 or 1.0 mg/kg TK-115339 3 hours before, and after, the doxorubicin treatment. […] The plasma samples were analyzed for cTnI using a commercial ELISA test.

[4] = system: CCRF-CEM human cancer cells; experiment: Cell culture study: interference with doxorubicin activity, alamarBlue cell viability; format: cell-based; details: doxorubicin 0.01, 0.1, 1.0 μM with TK-115339 0.01, 0.1, 1.0 μM, 72 hour incubation
Procedure: The aim of this study was to examine whether or not a representative nitrone test article, TK-115339, interfered with the desired activity of doxorubicin in vitro.
The tumor cell line for the cell culture study was CCRF-CEM (Human T-ALL, CCL-119) from ATCC, and cells were cultured in accordance with the product information sheets replacing 75 cm^2 culture flasks with 56.7 cm^2 Petri dishes and adding 1% penicillin-streptomycin solution and 1% GlutaMAX™ to the culture medium. The compound, TK-115339, was dissolved in DMSO then diluted to obtain initial working solutions of 1, 10 and 100 μM. […]
Cells were thawed according to ATCC protocol and plated in 10 mL of sterile filtered growth medium. […] Doxorubicin was evaluated at concentrations of 0.01, 0.1 and 1.0 μM alone or in combination with TK-115339 at concentrations of 0.01, 0.1 and 1.0 μM. […]
At the end of incubation, cell viability was determined by optical absorbance of alamarBlue® at λ=570 and 600 nm in accordance using a standard protocol provided by the vendor, Biosource. Data was analyzed using SPSS 14.0 software (SPSS Inc., Chicago, Ill.). Statistical significance of the differences between experimental groups was calculated by using one-way ANOVA followed by a Bonferroni post-hoc analysis.
Cells were prepared and tested as described above. […] For each condition, 12 replicates were analyzed. […]

SMILES	solubility in methanol ([1]; methanol)	solubility in water ([1]; water)	protection from doxorubicin-induced cardiac damage estimated by plasma cardiac troponin I (cTnI) (CD-1 mice [2])	dose response of protection from doxorubicin-induced cardiac damage (plasma cardiac troponin) (CD-1 mice [3])	interference with tumor cell anti-growth activity (cytotoxicity) of doxorubicin, cell viability [4]
COc1cccc2c1C(=O)c1c(O)c3c(c(O)c1C2=O)C[C@@](O)(C(=O)CO)C[C@@H]3O[C@H]1C[C@H](N)[C@H](O)[C@H](C)O1 [Doxorubicin hydrochloride, 5,12-naphthacenedione,10-[(3-amino-2,3,6-trideoxy-α-L-Iyxo-hexopyranosyl)oxy]-7,8,9,10-tetrahydro-6,8,11-trihydroxy-8-(hydroxyacetyl)-1-methoxy-, hydrochloride, (8S-cis)-(9Cl)]	slightly soluble in methanol	soluble in water	–	–	–
CC(C)(C)[N+]([O-])=Cc1ccc(SSc2ccc(C=[N+]([O-])C(C)(C)C)cc2)cc1 [TK-115339, symmetrical disulfide conjugate of alpha-(4-sulfanylphenyl)-N-tert-butylnitrone]	–	–	mitigate one aspect of doxorubicin-induced toxicity, cardiac damage in CD-1 mice; also recorded: protects mice from doxorubicin-induced cardiac damage	dose-response for the protection; also recorded: dose proportional	does not interfere with the toxicity of doxorubicin; also recorded: does not interfere with the tumor cell anti-growth activity of doxorubicin
